# Laboratory results as given in PubChem BioAssay (NCI).
#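 GI50: concentration for 50% inhibition of growth. The concentration for full growth arrest is given as TGI.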
# Assays:
# Test in all cases: NCI-60 cell line screen, 384-well format
# SR leukemia = test system: SR leukemia
# A498 renal = test system: A498 renal
# SN12C renal = test system: SN12C renal
# HOP-62 NSCLC = test system: HOP-62 NSCLC
# UO-31 renal = test system: UO-31 renal
# SK-MEL-5 melanoma = test system: SK-MEL-5 melanoma
# OVCAR-8 ovarian = test system: OVCAR-8 ovarian
# K-562 leukemia = test system: K-562 leukemia
# SW-620 colon = test system: SW-620 colon
# 786-0 renal = test system: 786-0 renal
# RXF 393 renal = test system: RXF 393 renal
# SK-OV-3 ovarian = test system: SK-OV-3 ovarian
# HT29 colon = test system: HT29 colon
# OVCAR-5 ovarian = test system: OVCAR-5 ovarian
# CCRF-CEM leukemia = test system: CCRF-CEM leukemia
# SNB-75 CNS = test system: SNB-75 CNS
# NCI/ADR-RES ovarian = test system: NCI/ADR-RES ovarian
# HS 578T breast = test system: HS 578T breast
# MDA-MB-231 breast = test system: MDA-MB-231 breast
# SF-268 CNS = test system: SF-268 CNS
# HCT-15 colon = test system: HCT-15 colon
# HL-60(TB) leukemia = test system: HL-60(TB) leukemia
# NCI-H522 lung = test system: NCI-H522 lung
# U251 glioblastoma = test system: U251 glioblastoma
# COLO 205 colon = test system: COLO 205 colon
# SNB-19 CNS = test system: SNB-19 CNS
# HCC-2998 colon = test system: HCC-2998 colon
# MDA-MB-435 melanoma = test system: MDA-MB-435 melanoma
# UACC-257 melanoma = test system: UACC-257 melanoma
# DU-145 prostate = test system: DU-145 prostate
# BT-549 breast = test system: BT-549 breast
# MDA-MB-468 breast = test system: MDA-MB-468 breast
# MALME-3M melanoma = test system: MALME-3M melanoma
# SF-539 CNS = test system: SF-539 CNS
# OVCAR-3 ovarian = test system: OVCAR-3 ovarian
# TK-10 renal = test system: TK-10 renal
# M14 melanoma = test system: M14 melanoma
# ACHN renal = test system: ACHN renal
# NCI-H322M lung = test system: NCI-H322M lung
# CAKI-1 renal = test system: CAKI-1 renal
# A549 NSCLC = test system: A549 NSCLC
# NCI-H23 lung = test system: NCI-H23 lung
# NCI-H460 NSCLC = test system: NCI-H460 NSCLC
# RPMI-8226 leukemia = test system: RPMI-8226 leukemia
# NCI-H226 lung = test system: NCI-H226 lung
# EKVX NSCLC = test system: EKVX NSCLC
# UACC-62 melanoma = test system: UACC-62 melanoma
# KM12 colon = test system: KM12 colon
# T-47D breast = test system: T-47D breast
# IGROV1 ovarian = test system: IGROV1 ovarian
# SK-MEL-28 melanoma = test system: SK-MEL-28 melanoma
# HCT-116 colon = test system: HCT-116 colon
# OVCAR-4 ovarian = test system: OVCAR-4 ovarian
# HOP-92 NSCLC = test system: HOP-92 NSCLC
# LOX IMVI melanoma = test system: LOX IMVI melanoma
# PC-3 prostate = test system: PC-3 prostate
# SF-295 CNS = test system: SF-295 CNS
# MOLT-4 leukemia = test system: MOLT-4 leukemia
# SK-MEL-2 melanoma = test system: SK-MEL-2 melanoma
compound,measurement,setting,value
CC(=O)c1ccc2c(c1)c1cc(C(C)=O)ccc1n2CCNC(C)C,GI50,SR leukemia,33.8 nM
same,TGI,SR leukemia,86.6 nM
same,GI50,A498 renal,182 nM
same,TGI,A498 renal,329 nM
same,GI50,SN12C renal,221 nM
same,TGI,SN12C renal,728 nM
same,GI50,HOP-62 NSCLC,201 nM
same,TGI,HOP-62 NSCLC,755 nM
same,GI50,UO-31 renal,168 nM
same,TGI,UO-31 renal,308 nM
same,GI50,SK-MEL-5 melanoma,178 nM
same,TGI,SK-MEL-5 melanoma,322 nM
same,GI50,OVCAR-8 ovarian,276 nM
same,TGI,OVCAR-8 ovarian,1320 nM
same,GI50,K-562 leukemia,178 nM
same,TGI,K-562 leukemia,405 nM
same,GI50,SW-620 colon,207 nM
same,TGI,SW-620 colon,736 nM
same,GI50,786-0 renal,228 nM
same,TGI,786-0 renal,855 nM
same,GI50,RXF 393 renal,170 nM
same,TGI,RXF 393 renal,529 nM
same,GI50,SK-OV-3 ovarian,300 nM
same,TGI,SK-OV-3 ovarian,1230 nM
same,GI50,HT29 colon,206 nM
same,TGI,HT29 colon,1030 nM
same,GI50,OVCAR-5 ovarian,433 nM
same,TGI,OVCAR-5 ovarian,14300 nM
same,GI50,CCRF-CEM leukemia,148 nM
same,TGI,CCRF-CEM leukemia,299 nM
same,GI50,SNB-75 CNS,264 nM
same,TGI,SNB-75 CNS,743 nM
same,GI50,NCI/ADR-RES ovarian,204 nM
same,TGI,NCI/ADR-RES ovarian,472 nM
same,GI50,HS 578T breast,195 nM
same,TGI,HS 578T breast,376 nM
same,GI50,MDA-MB-231 breast,194 nM
same,TGI,MDA-MB-231 breast,446 nM
same,GI50,SF-268 CNS,222 nM
same,TGI,SF-268 CNS,618 nM
same,GI50,HCT-15 colon,206 nM
same,TGI,HCT-15 colon,464 nM
same,GI50,HL-60(TB) leukemia,201 nM
same,TGI,HL-60(TB) leukemia,349 nM
same,GI50,NCI-H522 lung,152 nM
same,TGI,NCI-H522 lung,307 nM
same,GI50,U251 glioblastoma,248 nM
same,TGI,U251 glioblastoma,715 nM
same,GI50,COLO 205 colon,164 nM
same,TGI,COLO 205 colon,311 nM
same,GI50,SNB-19 CNS,279 nM
same,TGI,SNB-19 CNS,2650 nM
same,GI50,HCC-2998 colon,311 nM
same,TGI,HCC-2998 colon,811 nM
same,GI50,MDA-MB-435 melanoma,320 nM
same,TGI,MDA-MB-435 melanoma,922 nM
same,GI50,UACC-257 melanoma,182 nM
same,TGI,UACC-257 melanoma,351 nM
same,GI50,DU-145 prostate,344 nM
same,TGI,DU-145 prostate,1430 nM
same,GI50,BT-549 breast,348 nM
same,TGI,BT-549 breast,932 nM
same,GI50,MDA-MB-468 breast,164 nM
same,TGI,MDA-MB-468 breast,306 nM
same,GI50,MALME-3M melanoma,172 nM
same,TGI,MALME-3M melanoma,319 nM
same,GI50,SF-539 CNS,228 nM
same,TGI,SF-539 CNS,669 nM
same,GI50,OVCAR-3 ovarian,273 nM
same,TGI,OVCAR-3 ovarian,969 nM
same,GI50,TK-10 renal,472 nM
same,TGI,TK-10 renal,11700 nM
same,GI50,M14 melanoma,259 nM
same,TGI,M14 melanoma,665 nM
same,GI50,ACHN renal,101 nM
same,TGI,ACHN renal,245 nM
same,GI50,NCI-H322M lung,234 nM
same,TGI,NCI-H322M lung,543 nM
same,GI50,CAKI-1 renal,150 nM
same,TGI,CAKI-1 renal,317 nM
same,GI50,A549 NSCLC,189 nM
same,TGI,A549 NSCLC,353 nM
same,GI50,NCI-H23 lung,193 nM
same,TGI,NCI-H23 lung,461 nM
same,GI50,NCI-H460 NSCLC,164 nM
same,TGI,NCI-H460 NSCLC,316 nM
same,GI50,RPMI-8226 leukemia,164 nM
same,TGI,RPMI-8226 leukemia,303 nM
same,GI50,NCI-H226 lung,153 nM
same,TGI,NCI-H226 lung,308 nM
same,GI50,EKVX NSCLC,409 nM
same,TGI,EKVX NSCLC,931 nM
same,GI50,UACC-62 melanoma,170 nM
same,TGI,UACC-62 melanoma,313 nM
same,GI50,KM12 colon,286 nM
same,TGI,KM12 colon,2270 nM
same,GI50,T-47D breast,258 nM
same,TGI,T-47D breast,619 nM
same,GI50,IGROV1 ovarian,480 nM
same,TGI,IGROV1 ovarian,15100 nM
same,GI50,SK-MEL-28 melanoma,207 nM
same,TGI,SK-MEL-28 melanoma,435 nM
same,GI50,HCT-116 colon,199 nM
same,TGI,HCT-116 colon,731 nM
same,GI50,OVCAR-4 ovarian,244 nM
same,TGI,OVCAR-4 ovarian,637 nM
same,GI50,HOP-92 NSCLC,225 nM
same,TGI,HOP-92 NSCLC,656 nM
same,GI50,LOX IMVI melanoma,192 nM
same,TGI,LOX IMVI melanoma,338 nM
same,GI50,PC-3 prostate,279 nM
same,TGI,PC-3 prostate,782 nM
same,GI50,SF-295 CNS,309 nM
same,TGI,SF-295 CNS,1170 nM
same,GI50,MOLT-4 leukemia,34.6 nM
same,TGI,MOLT-4 leukemia,101 nM
same,GI50,SK-MEL-2 melanoma,263 nM
same,TGI,SK-MEL-2 melanoma,478 nM
